Test results: US4069379A, “Semi-synthetic oleandomycins” (Pfizer Inc., priority 1976, dated 1978)
In brackets after ≈: the same amount, converted by molar mass. Like-named read-outs stand apart in the source and are kept apart here.

Experiments:
Staph. aureus 01A005 [1] = test: minimum inhibitory concentration (MIC), Staph. aureus 01A005; format: cell-based; settings: Staphylococcus aureus; in vitro; Staph. aureus 01A005, Gram-positive
Source text: (§1) The oleandomycin compounds of the present invention are effective in inhibiting the growth of microorganisms, especially Gram-positive microorganisms. The high activity against Gram-positive organisms shown by these compounds is contrasted in some respects with the lower activity against Gram-negative organisms. The following table illustrates the in vitro antibiotic spectrum of the compounds of the instant invention. The tests were run according to the "minimum inhibitory concentration"(MIC) procedure of Ericsson and Sherris [H. M. Ericsson and J. C. Sherris, Acta. Pathol. Microbiol. Scand. Suppl., 217B 64 (1971)].

E. coli 51A266 = test: minimum inhibitory concentration (MIC), E. coli 51A266; format: cell-based; settings: Escherichia coli; in vitro; E. coli 51A266, Gram-negative
Source text: as §1

Klebsiella pn. 53A009 = test: minimum inhibitory concentration (MIC), Klebsiella pn. 53A009; format: cell-based; settings: in vitro; Klebsiella pn. 53A009, Gram-negative
Source text: as §1

Staph. aureus 01A400R = test: minimum inhibitory concentration (MIC), Staph. aureus 01A400R; format: cell-based; settings: Staphylococcus aureus, read-out: MIC Values, Staph. aureus 01A400R
Source text: as §1

Salm. typhm. 58D009 = test: minimum inhibitory concentration (MIC), Salm. typhm. 58D009; format: cell-based; settings: in vitro; Salm. typhm. 58D009, Gram-negative
Source text: as §1

B. subtilis = test: minimum inhibitory concentration (MIC), B. subtilis; format: cell-based; settings: Bacillus subtilis, in vitro, Gram-positive
Source text: as §1

Staph. aureus 01A005 [2] = test: protection against in vivo infection of mice infected with Staph. aureus 01A005; settings: subcutaneous or oral administration to mice infected with Staph. aureus 01A005; compared with natural oleandomycin
Method: The ability of the compounds of the present invention to protect against in vivo infections was determined by subcutaneous or oral administration to mice infected with Staph. aureus 01A005. Using the test method described by Retsema [J. A. Retsema et al., Antimicr.

[3] = in vitro, Staph. aureus 01A400R, Gram-positive

| MIC (Staph. aureus 01A005 [1]) [µg/mL] | MIC (E. coli 51A266) [µg/mL] | MIC (Klebsiella pn. 53A009) [µg/mL] | MIC (Staph. aureus 01A400R; [3]) [µg/mL] | MIC (Salm. typhm. 58D009) [µg/mL] | MIC (B. subtilis) [µg/mL] | SMILES | protection against infection (Staph. aureus 01A005 [2]) | MIC (Staph. aureus 01A400R; 01A400R) [µg/mL] |
| --- | --- | --- | --- | --- | --- | --- | --- | --- |
| 25 (≈ 31.3 µM) | > 200 | > 200 | 200 (≈ 251 µM) | > 200 | – | C=C1CC(C)C(OC2OC(C)CC(N(C)C)C2OC(C)=O)C(C)C(OC2CC(OC)C(OC(C)=O)C(C)O2)C(C)C(=O)OC(C)C(C)C(OC(C)=O)C(C)C1=O (centres unmarked) [Compound II Ac Ac Ac, 8,8a-Deoxy-8,8a-Methylene-2',4",11-Triacetyloleandomycin] | – | – |
| 25 (≈ 29.3 µM) | > 200 | > 200 | 200 (≈ 235 µM) | > 200 | 25 (≈ 29.3 µM) | C=C1CC(C)C(OC2OC(C)CC(N(C)C)C2OC(C)=O)C(C)C(OC2CC(OC)C(OC(C)=O)C(C)O2)C(C)C(=O)OC(C)C(C)C(OC(=O)C(F)(F)F)C(C)C1=O (centres unmarked) [Compound II Ac Ac drawing 7, 8,8a-Deoxy-8,8a-Methylene-2',4"-Diacetyl-11-Trifluoroacetyloleandomycin] | – | – |
| 3.12 (≈ 4.13 µM) | > 200 | > 200 | > 200 | > 200 | 3.12 (≈ 4.13 µM) | C=C1CC(C)C(OC2OC(C)CC(N(C)C)C2OC(C)=O)C(C)C(OC2CC(OC)C(O)C(C)O2)C(C)C(=O)OC(C)C(C)C(OC(C)=O)C(C)C1=O (centres unmarked) [Compound II Ac H Ac, 8,8a-Deoxy-8,8a-Methylene-2',11-Diacetyloleandomycin] | – | – |
| 6.25 (≈ 9.3 µM) | > 200 | > 200 | 25 (≈ 37.2 µM) | – | – | C=C1CC(C)C(OC2OC(C)CC(N(C)C)C2O)C(C)C(OC2CC(OC)C(O)C(C)O2)C(C)C(=O)OC(C)C(C)C(O)C(C)C1=O (centres unmarked) [Compound II H H H, 8,8a-Deoxy-8,8a-Methylene-Oleandomycin] | protection against infection which was comparable to natural oleandomycin | – |
| 1.56 (≈ 1.92 µM) | > 200 | > 200 | 12.5 (≈ 15.4 µM) | > 200 | 3.12 (≈ 3.84 µM) | COC1CC(OC2C(C)C(=O)OC(C)C(C)C(OC(C)=O)C(C)C(=O)C3(CC3)CC(C)C(OC3OC(C)CC(N(C)C)C3OC(C)=O)C2C)OC(C)C1OC(C)=O (centres unmarked) [Compound III Ac Ac Ac, 8,8a-Deoxy-8,8a-Cyclopropyl-2',4",11-Triacetyloleandomycin] | – | – |
| 0.2 (≈ 0.26 µM) | > 200 | > 200 | 3.12 (≈ 4.05 µM) | > 200 | 0.78 (≈ 1.01 µM) | COC1CC(OC2C(C)C(=O)OC(C)C(C)C(OC(C)=O)C(C)C(=O)C3(CC3)CC(C)C(OC3OC(C)CC(N(C)C)C3OC(C)=O)C2C)OC(C)C1O (centres unmarked) [Compound III Ac H Ac, 8,8a-Deoxy-8,8a-Cyclopropyl-2',11-Diacetyloleandomycin] | – | – |
| 0.2 (≈ 0.292 µM) | > 200 | > 200 | 1.56 (≈ 2.27 µM) | > 200 | 0.39 (≈ 0.569 µM) | COC1CC(OC2C(C)C(=O)OC(C)C(C)C(O)C(C)C(=O)C3(CC3)CC(C)C(OC3OC(C)CC(N(C)C)C3O)C2C)OC(C)C1O (centres unmarked) [Compound III H H H, 8,8a-Deoxy-8,8a-Cyclopropyloleandomycin] | protection against infection which was comparable to natural oleandomycin | – |

| SMILES | MIC (Staph. aureus 01A005 [1]) [µg/mL] | MIC (E. coli 51A266) [µg/mL] | MIC (Klebsiella pn. 53A009) [µg/mL] | MIC (Staph. aureus 01A400R; [3]) [µg/mL] | MIC (Salm. typhm. 58D009) [µg/mL] | MIC (B. subtilis) [µg/mL] | protection against infection (Staph. aureus 01A005 [2]) | MIC (Staph. aureus 01A400R; 01A400R) [µg/mL] |
| --- | --- | --- | --- | --- | --- | --- | --- | --- |
| COC1CC(OC2C(C)C(=O)OC(C)C(C)C(O[Si](C)(C)C)C(C)C(=O)C3(CC3)CC(C)C(OC3OC(C)CC(N(C)C)C3OC(C)=O)C2C)OC(C)C1OC(C)=O (centres unmarked) [Compound III Ac Ac Me3 Si, 8,8a-Deoxy-8,8a-Cycloproyl-2',4"-Diacetyl-11-Trimethylsilyloleandomycin] | 3.12 (≈ 3.7 µM) | > 200 | > 200 | – | > 200 | 12.5 (≈ 14.8 µM) | – | > 200 |
